Reference: patent US5877165A, “Boronated porhyrins and methods for their use” (priority 1997, dated 1999)
Several values for one entry are separate records, joined by “and”; a condition that tells them apart may be missing. Identical values can stand only once. Like-named read-outs stand apart in the source and are kept apart here.

Assays:
[1] = Toxicity testing of NiTCP, MnTCP and CuTCP in normal mice (Example 13, Table 3); assay type: in vivo, BALB/c mice; details: 4 days after last of 6 ip injections
Description: Levels of glucose [GLU], blood urea nitrogen [BUN], blood creatinine [BCR], alanine transaminase [ALT], aspartate transaminase [AST], alkaline phosphatase [ALP], total protein [TPR], albumin [ALB], and creatine phosphokinase [CPK] were determined in blood plasma using a Cobas Fara II microanalysis system. Blood platelets [PLT] and white blood cells [WBC] were counted using a Serono-Baker System 9000 automated hematology microanalyzer.
Compounds prepared as in Example 1B and 1C were formulated with 6% Cremophor EL [CRM] and 12% propylene glycol [PrG] in saline. Total doses of MnTCP and CuTCP of 174 and 223 μg/g body weight, respectively, were administered to normal BALB/c mice. Each mouse was given 6 intraperitoneal [ip] injections over a period of 32 hours. Mice were euthanized 4 days after the last injection and chemical, enzymatic and hematological analyses of their blood were compared to those of similar mice given NiTCP at a dose of 252 μg/g body weight.

[2] = tested on: 9L gliosarcomas; set-up: species or system Fischer 344 rats; details: rat, in vivo, iv
Description: 2C. Preparation of CuTCP and CuTCP-H Solution for Rat Studies
(§1) CuTCP-H as prepared in Example 1D was formulated with 9% CRM and 18% PrG to form a solution to which saline was added dropwise to yield 3.34 mg/ml of CuTCP and […] CuTCP-H, respectively. The resulting total doses were 215 mg/kg body weight for CuTCP and 149 mg/kg body weight for CuTCP-H. These solutions were then utilized for toxicity and biodistribution experiments in rats.
(§2) Direct current plasma-atomic emission spectroscopy [DCP-AES] (ARL/Fisons Model SS-7) was used (detection limit: 0.1 μg/ml). Samples (50-130 mg) were digested at 60° C. with sulfuric acid:nitric acid (1:1). Triton X-100 and water were added to give final concentrations of ≈50 mg tissue/ml, 15% total acid v/v and 5% Triton X-100 v/v. Fat and liver tissues were assayed for ^10 B by prompt-gamma spectroscopy (Fairchild, et al., 1986). The prompt-gamma measurements were multiplied by 5.0 to give the total boron concentrations due to the use of boron of natural isotope abundance in the syntheses of all boronated porphyrins reported.
Male Fischer 344 rats each bearing 4 subcutaneous 9L gliosarcomas were given 210-219 mg CuTCP/kg body wt by 48-h iv infusion. Tumor and blood were sampled at 0, 1, 2, and 3 days after the end of infusion for boron analyses and blood for toxicity. Rats were euthanized on day 3 and other organs were analyzed for boron uptake.

[3] = Overall ranking of boronated porphyrins for BNCT guided by biodistribution and toxicity tests in mice (Table 11)
Description: The higher the numerical value, the better the performance of that porphyrin for that property. […] Although VCDP was able to deliver therapeutic amounts of boron to tumor, such side effects such as thrombocytopenia, which was induced within 3 hours after injections, weight loss, and the altered hepatic enzymes were serious enough to rank VCDP considerably behind the TCP's and the TCP-H's (Miura et al., 1992). In addition, the 80-hour drug administration period and the 90-hour blood clearance period are of great inconvenience. Moreover, this 4-day difference between the VCDP and the TCP (or TCP-H) dose and clearance schedules would translate into a 4-day greater delay between initiation of drug administration and neutron irradiation which would allow greater tumor growth to occur.
[…]
biodistribution and toxicity tests in mice. An asterisk indicates

[4] = tested on: 9L gliosarcomas; set-up: species or system Fischer 344 rats; details: rat, in vivo
Description: as §1, §2
CuTCP-H (146-152 mg/kg body weight) was given to four Fischer 344 rats each bearing four subcutaneous 9L gliosarcomas. A solution of 3.34 mg CuTCP-H/mL, in 9% CRM and 18% PrG, was given to rats by 48-hour i.v. infusion in a total volume of 9.6 mL.

[5] = Boron biodistribution, mice with KHJJ mammary carcinomas (Examples 4-7, Table 1); assay type: in vivo, BALB/c mice; details: mouse, ip, 900 mg/kg, 6 hr after last i.p. injection, BPA 900 or NiTCP 160 μg/gbw, median (range)
Description: (§3) Female BALB/c mice (Taconic Farms, Germantown, N.Y.) (20-25 g) were implanted with either KHJJ or EMT-6 tumors. For KHJJ tumors, 1-3 mm^3 tumor fragments were implanted subcutaneously (s.c.) in the dorsal thorax of each mouse using an 18-gauge trocar. For EMT-6 tumors, 2.5×10^5 cells were implanted similarly using a 27-gauge needle. EMT-6 tumor cells were grown alternately in vivo and in vitro. Single-cell suspensions were prepared from mouse-grown tumors by trypsinization. These were grown in cell culture for several passages and then were frozen in 10% DMSO and stored in liquid nitrogen. Prior to implantation in mice, the cells were thawed and grown in tissue culture in Alpha-MEM with 10% FBS for several passages.
(§4) Under deep halothane anesthesia leading to euthanasia, right ventricular blood was collected in Microtainer (Becton-Dickinson, Rutherford, N.J.) tubes containing EDTA for hematological analyses and boron assays of whole blood and in Microtainer™ tubes containing lithium heparin for chemical analyses and enzyme assays of blood plasma. Tumor, brain, fat, muscle, and liver tissues were sampled at necropsy for boron analyses.
as §2
(§5) Seven mice having KHJJ mammary carcinomas were given one intraperitoneal (i.p.) injection of 900 μg/g body weight of the boron compound presently used for BNCT of malignant brain tumors, p-boronophenylalanine (BPA) complexed with fructose. BPA was prepared in accordance with procedure described in Coderre, et al., 1996 incorporated herein by reference in its entirety as if set forth in full.
(§6) Mice were euthanized during the collection of blood while under Halothane anesthesia. At necropsy, the apparent states of structural integrity, consistency, color or abnormality, if any, of tissues were observed and tumor, brain and liver tissues were collected from each mouse for boron analysis.
(§7) Eight mice having KHJJ mammary carcinomas were injected with the NiTCP solution in the amount of 160 μg NiTCP/g body weight (36 μgB/g body weight) in six i.p. injections over 20 hours.
(§8) Six hours after the mice were last injected with NiTCP, mice were euthanized during the collection of blood while under Halothane anesthesia and right ventricular blood was collected from each mouse for hematological and chemical analysis without pooling the samples. At necropsy, the apparent states of structural integrity, consistency, color, or abnormality, if any, of tissues were observed and tumor, brain and liver tissues were collected from each mouse for boron analysis without pooling the samples.
(§9) Seven mice having KHJJ mammary carcinomas were injected with the NiTCP solution in the amount of 160 μg NiTCP/g body weight (36 μgB/g body weight) in six i.p. injections over 20 hours.
(§10) Sixteen hours after the mice were injected with NiTCP, mice were euthanized during the collection of blood while under Halothane anesthesia and right ventricular blood was collected from each mouse for hematological and chemical analysis without pooling the samples. At necropsy, the apparent states of structural integrity, consistency, color, or abnormality, if any, of tissues were observed and tumor, brain and liver tissues were collected from each mouse for boron analysis. […]

[6] = tested on: KHJJ mammary carcinomas; assay: as above; assay type: in vivo, BALB/c mice; details: 6 hr after last i.p. injection; BPA 900 or NiTCP 160 μg/gbw; median (range); 900 mg/kg, 360 min
Description: as §3, §4, §2, §5, §6, §7, §8, §9, §10

[7] = clinical BNCT (Coderre, et al., 1997); cited from earlier work
[8] = Experiment IV: boron concentrations in tissues, mice bearing EMT-6 tumors (Table 10); assay type: in vivo, BALB/c mice; details: mouse, ip, 837 mg/kg, BPA fructose complex, 6 hr, tumor model not restated
Description: (§11) Lipophilic porphyrins 1, 2, 4, 5, and 6 were injected as emulsions in either 3% or 9% CRM and either 6% or 18% PRG with saline as previously described in Example 2 above. Water soluble porphyrins 3 and 7 were dissolved in saline. BPA was solubilized as a fructose complex.
(§12) Female BALB/c mice (from Taconic Farms, Germantown, N.Y.) (20-25 g) were implanted with either KHJJ or EMT-6 tumors according to the procedure described in Example 3A above.
as §4
(§13) In Experiment IV, samples of BPA (836 μg/gbw), CuTCP (160 μg/gbw) and a combination of both were tested in mice with EMT-6 tumors. BPA was given in a single i.p. injection and mice were euthanized 6 hours later. CuTCP was given in 5 i.p. injections over 28 hours and mice were euthanized 90 hrs after the last injection. The group receiving both CuTCP and BPA were injected with CuTCP five times over 28 hours as was the CuTCP-only group and then with a single i.p. injection of BPA 6 hours prior to euthanasia which was 90 hours after the last injection of CuTCP.
(§14) Hematological, chemical and enzymatic tests were carried out as described in Example 3 above. Nonparametric statistical analyses were carried out using the Wilcoxon Two-Sample Test in accordance with procedures described in Slatkin, D.N., 1995. Boron analyses were conducted in accordance with the procedure described in Example 3 above. Fat and liver tissues were assayed for ^10 B by prompt-gamma spectroscopy as described in Fairchild, et al., 1986. These measurements were multiplied by 5.0 to give total boron concentrations due to the use of boron of natural isotope abundance in the syntheses of all boronated porphyrins reported.

[9] = tested on: EMT-6 tumors; assay: as above; assay type: in vivo, BALB/c mice; details: 90 hrs after last of 5 ip CuTCP (160 μg/gbw); BPA (837 μg/gbw) 1 ip 6 hr before euthanasia; 836 mg/kg
Description: as §11, §12, §4, §13, §14

[10] = Hematological, enzymatic and chemical blood analyses and weight change, mice with KHJJ mammary carcinomas (Examples 4-7, Table 1); assay type: in vivo, BALB/c mice; details: NiTCP 160 or BPA 900 μg/gbw; 6-78 hr
Description: as §3, with “passages. […]” for “passages.”
Levels of glucose [GLU], blood urea nitrogen [BUN], blood creatinine [BCR], alanine transaminase [ALT], aspartate transaminase [AST], alkaline phosphatase [ALP], total protein [TPR], albumin [ALB], and creatine phosphokinase [CPK] were determined in blood plasma using a Cobas Fara II microanalysis system. Blood platelets [PLT] and white blood cells [WBC] were counted using a Serono-Baker System 9000 automated hematology microanalyzer. […]

Manganese Tetracarboranylphenylporphyrin [MnTCP]
toxicity / thrombocytopenia, in words [1]: little if any difference in toxicity

Copper Tetracarboranylphenylporphyrin [CuTCP]
toxicity / thrombocytopenia, in words [1]: little if any difference in toxicity | time to rapid and almost total clearance of boron in blood [2]: ≤ 2 days | Boron concentration in tumor ([2]; 215 mg/kg, 0 h): 54-68 μg B/g | Boron concentration in tumor ([2]; 215 mg/kg, 48 h): 38-69 μg B/g | boron in cerebellum ([2]; 215 mg/kg, 48 h): 1.5 μg B/g | boron in cerebrum ([2]; 215 mg/kg, 48 h): 2.5 μg B/g | median boron in blood ([2]; 215 mg/kg, 48 h): 6 μg B/g | median boron in tumor ([2]; 215 mg/kg, 48 h): 55 μg B/g | average boron concentration, cerebellum ([2]; 215 mg/kg, 72 h): 1-2 μg B/g | average boron concentration, cerebrum ([2]; 215 mg/kg, 72 h): 1-2 μg B/g | Drug tolerance/deliverable boron (ranking) [3]: 4 | Lipophilicity (ranking) [3]: 2 | Tumor uptake (normalized) (ranking) [3]: 3 | Tumor:Blood (ranking) [3]: 3

Copper Tetracarboranylporphyrin Hydride [CuTCP-H]
tumor:blood ratio (boron) ([4]; 2880 min): 16:1 | Boron concentration, Blood ([4]; iv, 149 mg/kg, 0 h): 183 (160-205) μg B/g | Boron concentration, Tumor ([4]; iv, 149 mg/kg, 0 h): 45 (23-51) μg B/g | Boron concentration, Blood ([4]; iv, 149 mg/kg, 24 h): 62 (56-65) μg B/g | Boron concentration, Tumor ([4]; iv, 149 mg/kg, 24 h): 46 (35-52) μg B/g | Boron concentration, Blood ([4]; iv, 149 mg/kg, 120 h): 0.6 (0.3-0.7) μg B/g | Boron concentration, Cerebellum ([4]; iv, 149 mg/kg, 120 h): 2.8 (2.1-6.2) μg B/g | Boron concentration, Cerebrum ([4]; iv, 149 mg/kg, 120 h): 4.9 (2.2-6.9) μg B/g | Boron concentration, Liver ([4]; iv, 149 mg/kg, 120 h): 345 (336-408) μg B/g | Boron concentration, Tumor ([4]; iv, 149 mg/kg, 120 h): 31 (23-55) μg B/g

N[C@@H](Cc1ccc(B(O)O)cc1)C(=O)O [BPA, p-boronophenylalanine]
concentration at 6 h ([5]; blood, read-out: Boron Concentration: Blood): 4600 ng/g | concentration at 6 h ([5]; brain, read-out: Boron Concentration: Brain): 7200 ng/g | concentration at 6 h ([5]; tumor, read-out: Boron Concentration: Tumor): 13800 ng/g | Boron Concentration: Tumor [6]: ≈ 14 μg B/g | brain and blood boron concentrations relative to tumor [7]: approximately one-third that found in tumor | chemical toxicity, in words [7]: not eliciting any chemical toxicity | concentration at 6 h ([8]; blood, read-out: Blood boron): 2000 ng/g | concentration at 6 h ([8]; brain, read-out: Brain boron, median): 8000 ng/g | Boron concentration, Blood [9]: 2.0 (1.2-3.6) μg B/g | Boron concentration, Brain [9]: 8.1 (5.9-9.6) μg B/g | Boron concentration, Fat [9]: 0.4 (0-1.8) μg B/g | Boron concentration, Liver [9]: 2.1 (0.1-3.1) μg B/g | Boron concentration, Muscle [9]: 3.8 (2.1-7.9) μg B/g | Boron concentration, Tumor [9]: 5.4 (3.5-23) μg B/g and 5.4 μg B/g | toxicity, in words [10]: undetectable, minimal, or negligible in every respect
